In brackets after ≈: the same amount, converted by molar mass. Several values for one entry are separate records, joined by “and”; a condition that tells them apart may be missing. Equal values may be shown once. Where a name gives a salt, the structure may show the parent alone. Read-outs that look alike come from different tables or passages of the source. Blank lines part the entries; values can stand above or below the compound they belong to.
Assays:
[1] = target: T1, human Notum (81–451 Cys330Ser) (Homo sapiens, UniProt Q6P988, C330S); experiment: Notum OPTS biochemical assay; details: for IC50: mean
T1 construct: human Notum (81–451 Cys330Ser) as the enzyme; made in house
T1 sequence (Q6P988 81-451 C330S): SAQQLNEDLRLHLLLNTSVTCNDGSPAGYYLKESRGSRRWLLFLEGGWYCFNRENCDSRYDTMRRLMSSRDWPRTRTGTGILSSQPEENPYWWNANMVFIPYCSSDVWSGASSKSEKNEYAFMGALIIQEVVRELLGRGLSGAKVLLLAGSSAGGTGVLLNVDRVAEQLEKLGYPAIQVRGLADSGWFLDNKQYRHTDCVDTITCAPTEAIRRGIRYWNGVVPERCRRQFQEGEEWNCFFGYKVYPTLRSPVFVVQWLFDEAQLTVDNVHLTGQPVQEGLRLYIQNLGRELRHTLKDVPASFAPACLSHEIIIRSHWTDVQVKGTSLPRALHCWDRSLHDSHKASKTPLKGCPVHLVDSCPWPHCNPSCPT
Source text: The optimization of 6 to deliver this profile was directed at three principle areas of these hit structures: (1) aryl ring 7 (Table 1); (2) the C4 substituent on triazole 8 (Table 2); and (3) further fine-tuning of the triazole 9 (Table 3). […] This assay was used to establish SAR and to identify preferred leads for additional studies.
Methods have been described in detail elsewhere.[23]−[26] Representative concentration–response curves are provided in the Supporting Information.

[2] = target: T2, Notum (Homo sapiens, UniProt Q6P988); experiment: ABPP-TMT (FP-biotin) proteomic analysis in SW620 cells
T2 sequence (Q6P988 20-496): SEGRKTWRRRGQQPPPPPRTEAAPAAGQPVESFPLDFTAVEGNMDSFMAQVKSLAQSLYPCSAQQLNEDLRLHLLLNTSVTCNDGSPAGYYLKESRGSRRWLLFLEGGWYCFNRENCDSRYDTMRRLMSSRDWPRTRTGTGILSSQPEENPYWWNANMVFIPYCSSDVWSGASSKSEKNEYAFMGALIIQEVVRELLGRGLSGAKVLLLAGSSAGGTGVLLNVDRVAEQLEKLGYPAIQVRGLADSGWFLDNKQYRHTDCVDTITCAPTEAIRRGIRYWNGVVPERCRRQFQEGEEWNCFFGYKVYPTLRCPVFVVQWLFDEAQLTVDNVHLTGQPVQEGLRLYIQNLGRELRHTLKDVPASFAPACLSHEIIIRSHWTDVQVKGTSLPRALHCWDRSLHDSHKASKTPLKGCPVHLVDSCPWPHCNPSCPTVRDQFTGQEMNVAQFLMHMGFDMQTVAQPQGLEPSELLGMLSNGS

[3] = Aqueous solubility in PBS (pH 7.4); type: physicochemical; details: for solubility: PBS pH 7.4, read-out: aq. solubility; for solubility thermodynamic: PBS, pH 7.4, n = 2, read-out: Thermodynamic Solubility @ RT, mean
Source text: Biosciences (Hyderabad, India) or WuXi AppTec (Shanghai, China).
Table S1: Representative assay protocol

[4] = Stability in mouse liver microsomes; type: in vitro ADME; parameters: MLM Stability Cli mean: unit not given here; details: for half-life: mouse, liver microsomes, read-out: MLM Stability t1/2
[5] = in vitro; details: dog
[6] = tested on: MDR1 (P-gp); experiment: in vitro; details: dog
[7] = tested on: P-gp (MDR1); experiment: in vitro; details: dog
[8] = in vitro; details: pH 7.4
Description: G. Plasma protein binding (PPB):
Method: rapid equilibrium dialysis.
Test System Mouse Plasma (K2EDTA)
Test compound concentration 10 µM (mouse) or 2 µM (rat)

[9] = OPTS substrate, read-out: Notum IC50
[10] = SW620 conditioned media, 1e-8 M
[11] = SW620 conditioned media, 3e-8 M
[12] = SW620 conditioned media, 1e-7 M
[13] = SW620 conditioned media, 3e-7 M
[14] = SW620 conditioned media, 1e-6 M
[15] = SW620 conditioned media, 3e-6 M
[16] = SW620 conditioned media, 1e-5 M
[17] = MDCK-MDR1, MDCK-MDR1 AB Papp, apical to basal
[18] = MDCK-MDR1, MDCK-MDR1 BA Papp, basal to apical
[19] = MDCK-MDR1, MDR1-MDCKII A to B % Recovery
[20] = MDCK-MDR1, MDR1-MDCKII B to A % Recovery

IC50 [1, 9]: 7.4 ± 1.1 µM
Compound: OC1(Cc2cn(-c3ccc(Cl)c(C(F)(F)F)c3Cl)nn2)COC1 [8e, 3-((1-(2,4-Dichloro-3-(trifluoromethyl)phenyl)-1H-1,2,3-triazol-4-yl)methyl)oxetan-3-ol]

IC50 [1, 9]: 0.91 ± 0.12 µM | NOTUM intensity normalised to DMSO [2, 10]: 1.002 | NOTUM intensity normalised to DMSO [2, 11]: 0.8137 | NOTUM intensity normalised to DMSO [2, 12]: 0.7326 | NOTUM intensity normalised to DMSO [2, 13]: 0.3649 | NOTUM intensity normalised to DMSO [2, 14]: 0.1945 | NOTUM intensity normalised to DMSO [2, 15]: 0.1349 | NOTUM intensity normalised to DMSO [2, 16]: 0.07262 | NOTUM intensity normalised to DMSO ([2]; SW620 lysate, 1e-8 M): 1.016 | NOTUM intensity normalised to DMSO ([2]; SW620 lysate, 3e-8 M): 0.7635 | NOTUM intensity normalised to DMSO ([2]; SW620 lysate, 1e-7 M): 0.7415 | NOTUM intensity normalised to DMSO ([2]; SW620 lysate, 3e-7 M): 0.5781 | NOTUM intensity normalised to DMSO ([2]; SW620 lysate, 1e-6 M): 0.4746 | NOTUM intensity normalised to DMSO ([2]; SW620 lysate, 3e-6 M): 0.3389 | NOTUM intensity normalised to DMSO ([2]; SW620 lysate, 1e-5 M): 0.2883
Compound: NCc1cn(-c2ccc(Cl)c(C(F)(F)F)c2Cl)nn1 [8i, (1-(2,4-Dichloro-3-(trifluoromethyl)phenyl)-1H-1,2,3-triazol-4-yl)methanamine Hydrochloride]

IC50 [1, 9]: 0.2 ± 0.05 µM
Compound: COCc1cn(-c2ccc(Cl)c(C(F)(F)F)c2Cl)nn1 [8j, 1-(2,4-Dichloro-3-(trifluoromethyl)phenyl)-4-(methoxymethyl)-1H-1,2,3-triazole]

reduction in potency vs 7y [1]: 12 fold | IC50 [1, 9]: 0.11 ± 0.04 µM
Compound: Cc1cn(-c2ccc(Cl)c(C(F)(F)F)c2Cl)nn1 [8k, 1-(2,4-Dichloro-3-(trifluoromethyl)phenyl)-4-methyl-1H-1,2,3-triazole]

Second part, the compound before the results:

Compound: CC(O)Cc1cn(-c2ccc(Cl)c(C(F)(F)F)c2Cl)nn1 (centres unmarked) [8d, 1-(1-(2,4-Dichloro-3-(trifluoromethyl)phenyl)-1H-1,2,3-triazol-4-yl)propan-2-ol]
IC50 ([1]; Notum IC50, OPTS substrate): > 1 µM | IC50 [1, 9]: 1.7 ± 1.4 µM

Compound: O=C(O)c1cn(-c2ccc(Cl)c(C(F)(F)F)c2Cl)nn1 [8f, 1-(2,4-Dichloro-3-(trifluoromethyl)phenyl)-1H-1,2,3-triazole-4-carboxylic Acid]
IC50 [1, 9]: 0.031 ± 0.01 µM

Compound: NC(=O)c1cn(-c2ccc(Cl)c(C(F)(F)F)c2Cl)nn1 [8g, 1-(2,4-Dichloro-3-(trifluoromethyl)phenyl)-1H-1,2,3-triazole-4-carboxamide]
IC50 [1, 9]: 1.2 ± 0.3 µM

Compound: CNC(=O)c1cn(-c2ccc(Cl)c(C(F)(F)F)c2Cl)nn1 [8h, 1-(2,4-Dichloro-3-(trifluoromethyl)phenyl)-N-methyl-1H-1,2,3-triazole-4-carboxamide]
IC50 [1, 9]: 2.3 ± 0.22 µM

Compound: FC(F)(F)c1c(Cl)ccc(-n2cnnc2)c1Cl [9a, 4-(2,4-Dichloro-3-(trifluoromethyl)phenyl)-4H-1,2,4-triazole]
IC50 [1, 9]: 1.3 ± 0.21 µM

Compound: FC(F)(F)c1c(Cl)ccc(-n2cnnn2)c1Cl [9b, 1-(2,4-Dichloro-3-(trifluoromethyl)phenyl)-1H-tetrazole]
IC50 [1, 9]: 0.14 ± 0.02 µM

Compound: FC(F)(F)c1c(Cl)cnc(-n2ccnn2)c1Cl [9c, 3,5-Dichloro-2-(1H-1,2,3-triazol-1-yl)-4-(trifluoromethyl)pyridine]
IC50 [1, 9]: 0.0075 ± 0.0016 µM | solubility [3]: 400 µg/mL and 1400 µM | solubility thermodynamic [3]: 399 µg/mL (≈ 1410 µM) | MLM Cli [4]: 4.9/ND μL/min/mg protein | MLM Stability Cli mean ([4]; Table S4): 4.94 | half-life ([4]; Table S4): 2 h | Papp [5, 17]: 2 ×10⁻⁶ cm/s | Papp [5, 18]: 5 ×10⁻⁶ cm/s | recovery [6, 19]: 5.93% | recovery [6, 20]: 65.2% | Papp [7, 17]: 1.74 ×10⁻⁶ cm/s | Papp [7, 18]: 4.88 ×10⁻⁶ cm/s | efflux ratio ([7]; MDCK-MDR1, MDCK-MDR1 efflux ratio (ER)): 2.81

Compound: CC(=O)CC(c1ccccc1)c1c(O)c2ccccc2oc1=O (centres unmarked) [Warfarin, reference compound]
recovery at 4 h, 2 µM ([8]; SD, rat): 100% | fraction unbound at 4 h, 2 µM ([8]; SD, rat, plasma): 0.0063 | recovery at 5 h, 10 µM ([8]; mouse): 103% | Plasma protein binding (PPB), % bound ([8]; mouse, plasma, 5 h, 10 µM): 95.71% | fraction unbound at 5 h, 10 µM ([8]; mouse, plasma): 0.0429

Compound: O=C(O)CSc1ncnc2c(C3CC3)c(Cl)sc12 [compound 1, LP-922056, reference compound]
NOTUM intensity normalised to DMSO [2, 10]: 1.677 | NOTUM intensity normalised to DMSO [2, 11]: 1.111 | NOTUM intensity normalised to DMSO [2, 12]: 1.2088 | NOTUM intensity normalised to DMSO [2, 13]: 0.5634 | NOTUM intensity normalised to DMSO [2, 14]: 0.3108 | NOTUM intensity normalised to DMSO [2, 15]: 0.1718 | NOTUM intensity normalised to DMSO [2, 16]: 0.112 | NOTUM intensity normalised to DMSO ([2]; SW620 lysate, 1e-8 M): 0.811 | NOTUM intensity normalised to DMSO ([2]; SW620 lysate, 3e-8 M): 0.6714 | NOTUM intensity normalised to DMSO ([2]; SW620 lysate, 1e-7 M): 0.5739 | NOTUM intensity normalised to DMSO ([2]; SW620 lysate, 3e-7 M): 0.495 | NOTUM intensity normalised to DMSO ([2]; SW620 lysate, 1e-6 M): 0.3711 | NOTUM intensity normalised to DMSO ([2]; SW620 lysate, 3e-6 M): 0.4727 | NOTUM intensity normalised to DMSO ([2]; SW620 lysate, 1e-5 M): 0.5374

Compound: [2H]c1nnn(-c2ccc(Cl)c(C(F)(F)F)c2Cl)c1[2H] [d2-8l, 1-(2,4-Dichloro-3-(trifluoromethyl)phenyl)-1H-1,2,3-triazole-4,5-d2]
solubility [3]: 44 µg/mL and 155 µM | solubility thermodynamic [3]: 44 µg/mL (≈ 155 µM) | MLM Cli [4]: 5.4 μL/min/mg protein and 5.4/ND μL/min/mg protein | half-life ([4]; Table S4): 2.15 h | Papp [5, 17]: 48 ×10⁻⁶ cm/s | Papp [5, 18]: 35 ×10⁻⁶ cm/s | recovery [6, 19]: 102% | recovery [6, 20]: 111% | Papp [7, 17]: 47.8 ×10⁻⁶ cm/s | Papp [7, 18]: 35.4 ×10⁻⁶ cm/s
